The target of data set [1] is T1, human mutant α-Gal A (R301Q) (Homo sapiens, UniProt P06280, R301Q).
T1 construct: Tissue lysates were prepared by homogenizing about 50 mg tissue in assay buffer; from tissue; host or cells: heart, kidney, skin, liver and spleen of R301Q Tg/KO mice (human transgene, mouse α-Gal A knocked out)
T1 sequence (P06280 32-429 R301Q): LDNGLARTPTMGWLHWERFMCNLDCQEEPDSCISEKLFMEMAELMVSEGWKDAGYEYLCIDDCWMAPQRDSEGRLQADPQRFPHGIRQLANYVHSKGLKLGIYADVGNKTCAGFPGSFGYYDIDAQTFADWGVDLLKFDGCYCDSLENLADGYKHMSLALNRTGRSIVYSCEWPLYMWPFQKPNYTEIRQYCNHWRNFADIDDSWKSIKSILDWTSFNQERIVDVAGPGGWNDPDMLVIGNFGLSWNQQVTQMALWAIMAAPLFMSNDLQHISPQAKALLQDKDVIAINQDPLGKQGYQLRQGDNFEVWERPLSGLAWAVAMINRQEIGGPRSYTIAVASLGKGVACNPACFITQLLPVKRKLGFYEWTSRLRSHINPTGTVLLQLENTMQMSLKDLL
Nature of the data set: α-Gal A (GLA) enzyme activity in tissue lysates of R301Q Tg/KO mice. The format is in vivo. The settings on record: 4 weeks. From the text: Transgenic mice that exclusively express human mutant α-Gal A (R301Q) in an α-Gal A knock-out background (TgM/KO mice) were established and evaluated. This Example serves as a biochemical model to study and evaluate pharmacological chaperone therapy for Fabry disease, which is specific for those missense mutations that cause misfolding of α-Gal A.
Mice. Fabry R301Q Tg/KO mice were a gift from Dr. Robert Desnick. Male C57BL/6 mice were purchased from Taconic Farms, Germantown, N.Y. and housed in wire cages at 4 mice per cage. All studies were conducted at 8 weeks of age and conducted under strict adherence to IACUC guidelines.
Drug Administration. […] After dosing, indicated tissues were harvested and treated as described below.
Enzyme activity assay. After dosing, indicated tissues were harvested and frozen. Tissue lysates were prepared by homogenizing about 50 mg tissue in assay buffer. 2.5 μL lysate was combined with 17.5 μL of the assay buffer and 50 μL of the respective substrate solution (same as detailed in sections above). Reaction mixtures were then incubated at 37° C. for 1 hr. Afterward, 70 μL stop solution (0.4 M glycine, pH 10.8) was added, and fluorescence was read on a Victor plate reader at 355 nm excitation and 460 nm emission. Enzyme activity in the lysates was background subtracted, and normalized for protein concentration using the MicroBCA Protein Assay Kit (Pierce). A 4-MU standard curve was run (same as detailed in sections above) for conversion of fluorescence data to absolute enzyme activity expressed as nmoles/mg protein/hr or further normalized to % of untreated activity.

Another data set deals with GL-3. The data set is described as follows: GL-3 analysis from mouse tissues (LC-MS/MS). The format is in vivo. As to conditions: male R301Q Tg/KO mice, 30 mg/kg daily per os, 4 weeks. The procedure:
Drug Administration. […] For the GL-3 assay, two groups of 6-7 male […] After dosing, indicated tissues were harvested and treated as described below. GL-3 analysis from mouse tissues. Tissue samples were washed free of blood, weighed and homogenized with a solvent system in a FastPrep® system. Homogenate was then extracted using Solid Phase Extraction on a C18 cartridge. The eluent was evaporated and reconstituted prior to injection onto a LC/MS system. Nine GL3 isoforms were measured using positive ESI-MS/MS. LC separation was achieved on a Zorbax C18 column.

The conditions of data set [2]: including peripheral neuropathy and severe gastrointestinal effects; even at 150 mg/day; cited from earlier work.
Where [3] appears, read: male R301Q Tg/KO mice, 30 mg/kg daily oral gavage, vs. untreated.

This is an account of results in patent US20100113517A1, “METHOD FOR THE TREATMENT OF FABRY DISEASE USING PHARMACOLOGICAL CHAPERONES” (AMICUS THERAPEUTICS, INC., priority 2007, published 2010).

Where a name gives a salt, the structure may show the parent alone.

In the case of `OCC1NCC(O)C(O)C1O` (stereo not shown) [DGJ HCl, migalastat hydrochloride], in data set [1] (setting [3]), the “increase in mutant GLA activity, heart” value is reported as 11±0.1 -fold; the “increase in mutant GLA activity, kidney” value was 5.5±0.3 -fold; the “increase in mutant GLA activity, liver” value was 3±0.02 -fold; the “increase in mutant GLA activity, skin” value is 6.2±0.7 -fold. For the same molecule, in data set [1] (setting [3]), the “increase in mutant GLA activity, spleen” value is 5±0.1 -fold. Moreover, in data set [1] (male and female R301Q Tg/KO mice, 30 mg/kg/day in drinking water), the “increase in mutant GLA activity, all treated tissues” value was “comparable increases”. Further, in the data set on GL-3, the “GL-3 levels, kidney tissue” value was “trend towards reduction, but did not reach statistical significance”; the “reduction of GL-3 levels, heart tissue” value is 1.6 -fold; the “reduction of GL-3 levels, skin tissue” value is 2.2 -fold.

Take `CCCCN1C[C@H](O)[C@@H](O)[C@H](O)[C@H]1CO` [NB-DNJ]: in data set [2], the adverse events result is given as “numerous adverse events”.
